Source: patent US12030867B2, “Hsp90β selective inhibitors” (University of Notre Dame du Lac, priority 2018, dated 2024)
Like-named read-outs stand apart in the source and are kept apart here.

How the values were obtained:
Hsp90β = Hsp90β (Homo sapiens (Human), UniProt P08238); test: fluorescence polarization (FP) assay, competitive displacement of FITC labeled Geldanamycin; format: binding
Protocol: (§1) Once prepared, the compounds were evaluated for their binding affinities against the cytosolic isoforms, Hsp90α and Hsp90β by measuring their ability to competitively displace FITC labeled Geldanamycin (GDA) in a fluorescence polarization assay (apparent Kd's listed in Table 1). […] The alkyne (4k) was investigated to determine whether a linear substituent could project into the subpocket and affect selectivity.

Hsp90α = Hsp90α (Homo sapiens (Human), UniProt P07900); test: as above; format: binding; settings: apparent Kd, FP assay; read-out: Hsp90α Kd
Protocol: as §1

[1] = apparent Kd, FP assay, read-out: Hsp90β Kd

Chain of Hsp90β (P08238 whole entry, canonical isoform): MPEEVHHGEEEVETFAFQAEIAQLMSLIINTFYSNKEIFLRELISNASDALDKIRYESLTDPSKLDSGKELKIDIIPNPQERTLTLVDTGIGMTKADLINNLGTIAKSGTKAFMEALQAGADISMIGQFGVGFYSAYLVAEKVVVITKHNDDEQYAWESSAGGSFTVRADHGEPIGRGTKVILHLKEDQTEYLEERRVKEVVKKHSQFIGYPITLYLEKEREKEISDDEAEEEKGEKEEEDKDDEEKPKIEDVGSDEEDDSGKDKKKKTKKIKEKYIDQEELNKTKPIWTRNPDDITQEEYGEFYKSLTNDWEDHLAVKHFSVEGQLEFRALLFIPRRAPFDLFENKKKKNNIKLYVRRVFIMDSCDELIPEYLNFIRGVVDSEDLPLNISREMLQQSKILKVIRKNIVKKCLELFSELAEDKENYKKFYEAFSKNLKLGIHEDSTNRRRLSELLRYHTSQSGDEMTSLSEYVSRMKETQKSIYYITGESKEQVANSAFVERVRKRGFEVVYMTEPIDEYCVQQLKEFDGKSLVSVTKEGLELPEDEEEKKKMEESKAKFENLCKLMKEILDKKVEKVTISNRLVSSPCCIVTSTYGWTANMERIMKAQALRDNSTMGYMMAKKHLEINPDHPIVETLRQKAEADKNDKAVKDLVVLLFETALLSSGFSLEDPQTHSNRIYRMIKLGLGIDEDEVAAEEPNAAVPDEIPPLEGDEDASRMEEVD

Row | Compound | Kd (Hsp90β; [1]) [nM] | Kd (Hsp90α) [nM] | affinity for Hsp90β (in words) (Hsp90β; FP assay) | selectivity for Hsp90β over Hsp90α (in words) (Hsp90β; FP assay) | Kd (Hsp90β; read-out: Kd for Hsp90β) [nM]
1 | CCc1cc2cc(-n3nc(C)c4c3CC(C)(C)CC4=O)cc(N[C@H]3CC[C@H](O)CC3)c2c(=O)[nH]1 [Compound 4b, 3-ethyl-8-(((1r,4r)-4-hydroxycyclohexyl)amino)-6-(3,6,6-trimethyl-4-oxo-4,5,6,7-tetrahydro-1H-indazol-1-yl)isoquinolin-1(2H)-one] | 68 ± 8 | 180 ± 36 |  |  | 
2 | CCCc1cc2cc(-n3nc(C)c4c3CC(C)(C)CC4=O)cc(N3CCN(C)CC3)c2c(=O)[nH]1 [Compound 5c, 8-(4-methylpiperazin-1-yl)-3-propyl-6-(3,6,6-trimethyl-4-oxo-4,5,6,7-tetrahydro-1Hindazol-1-yl)isoquinolin-1(2H)-one] | 426 ± 53 | 8520 ± 240 | decrease in affinity | decrease in affinity and selectivity | 
3 | Cc1nn(-c2cc(N[C@H]3CC[C@H](O)CC3)c3c(=O)[nH]c(CO)cc3c2)c2c1C(=O)CC(C)(C)C2 [Compound 4j, 8-(((1r,4r)-4-hydroxycyclohexyl)amino)-3-(hydroxymethyl)-6-(3,6,6-trimethyl-4-oxo-4,5,6,7-tetrahydro-1H-indazol-1-yl)isoquinolin-1(2H)-one] | 233 ± 18 | 824 ± 104 |  | loss of selectivity | 
4 | CCCC1Cc2cc(-n3nc(C)c4c3CC(C)(C)CC4=O)cc(N3CCC(O)CC3)c2C(=O)N1 (stereo not drawn) [Compound 6b, 8-(4-hydroxypiperidin-1-yl)-3-propyl-6-(3,6,6-trimethyl-4-oxo-4,5,6,7-tetrahydro-1Hindazol-1-yl)-3,4-dihydroisoquinolin-1(2H)-one] |  |  | lost both selectivity and affinity | lost both selectivity and affinity | 
5 | C#Cc1cc2cc(-n3nc(C)c4c3CC(C)(C)CC4=O)cc(N[C@H]3CC[C@H](O)CC3)c2c(=O)[nH]1 [Compound 4k, 3-ethynyl-8-(((1r,4r)-4-hydroxycyclohexyl)amino)-6-(3,6,6-trimethyl-4-oxo-4,5,6,7-tetrahydro-1H-indazol-1-yl)isoquinolin-1(2H)-one] | 337 ± 15 | 381 ± 3 |  | without discrimination | 
6 | CCCc1cc2cc(-n3nc(C)c4c3CC(C)(C)CC4=O)cc(N3CCOCC3)c2c(=O)[nH]1 [Compound 5a, 8-morpholino-3-propyl-6-(3,6,6-trimethyl-4-oxo-4,5,6,7-tetrahydro-1H-indazol-1-yl)isoquinolin-1(2H)-one] | 121 ± 17 | > 50000 |  | excellent selectivity | ~121
7 | COCc1cc2cc(-n3nc(C)c4c3CC(C)(C)CC4=O)cc(N[C@H]3CC[C@H](O)CC3)c2c(=O)[nH]1 [Compound 4i, 8-(((1r,4r)-4-hydroxycyclohexyl)amino)-3-(methoxymethyl)-6-(3,6,6-trimethyl-4-oxo-4,5,6,7-tetrahydro-1H-indazol-1-yl)isoquinolin-1(2H)-one] | 159 ± 3 | 306 ± 23 |  | loss of selectivity | 
8 | Cc1nn(-c2cc(N[C@H]3CC[C@H](O)CC3)c3c(=O)[nH]c(C(C)(C)C)cc3c2)c2c1C(=O)CC(C)(C)C2 [Compound 4f, 3-(tert-butyl)-8-(((1r,4r)-4-hydroxycyclohexyl)amino)-6-(3,6,6-trimethyl-4-oxo-4,5,6,7-tetrahydro-1H-indazol-1-yl)isoquinolin-1(2H)-one] | > 50000 | > 50000 |  |  | 
9 | CCCc1cc2cc(-n3nc(C)c4c3CC(C)(C)CC4=O)cc(N(C)CCN(CC)CC)c2c(=O)[nH]1 [Compound 5g, 8-((2-(diethylamino)ethyl)(methyl)amino)-3-propyl-6-(3,6,6-trimethyl-4-oxo-4,5,6,7-tetrahydro-1H-indazol-1-yl)isoquinolin-1(2H)-one] | 4460 ± 188 | > 50000 |  |  | 
10 | CCCc1cc2cc(-n3nc(C)c4c3CC(C)(C)CC4=O)cc(NC3CCN(C)CC3)c2c(=O)[nH]1 [Compound 5f, 8-((1-methylpiperidin-4-yl)amino)-3-propyl-6-(3,6,6-trimethyl-4-oxo-4,5,6,7-tetrahydro-1Hindazol-1-yl)isoquinolin-1(2H)-one] | 513 ± 67 | 17100 ± 660 |  |  | 
